Source: PubChem BioAssay (NCI)
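At the GI50, growth is halved. Definition used: TGI = concentration required for complete inhibition of growth.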

Tests used:
Assay in all cases: DTP human tumour cell line panel, 384-well format
COLO 205 colon = test system: COLO 205 colon
NCI-H23 lung = test system: NCI-H23 lung
SF-295 CNS = test system: SF-295 CNS
TK-10 renal = test system: TK-10 renal
ACHN renal = test system: ACHN renal
NCI-H322M lung = test system: NCI-H322M lung
HL-60(TB) leukemia = test system: HL-60(TB) leukemia
PC-3 prostate = test system: PC-3 prostate
HS 578T breast = test system: HS 578T breast
SNB-19 CNS = test system: SNB-19 CNS
HCT-116 colon = test system: HCT-116 colon
T-47D breast = test system: T-47D breast
NCI/ADR-RES ovarian = test system: NCI/ADR-RES ovarian
MCF7 breast = test system: MCF7 breast
CAKI-1 renal = test system: CAKI-1 renal
SF-268 CNS = test system: SF-268 CNS
786-0 renal = test system: 786-0 renal
IGROV1 ovarian = test system: IGROV1 ovarian
CCRF-CEM leukemia = test system: CCRF-CEM leukemia
LOX IMVI melanoma = test system: LOX IMVI melanoma
SNB-75 CNS = test system: SNB-75 CNS
A498 renal = test system: A498 renal
A549 NSCLC = test system: A549 NSCLC
HOP-62 NSCLC = test system: HOP-62 NSCLC
SK-MEL-2 melanoma = test system: SK-MEL-2 melanoma
KM12 colon = test system: KM12 colon
SW-620 colon = test system: SW-620 colon
SF-539 CNS = test system: SF-539 CNS
HT29 colon = test system: HT29 colon
MDA-MB-435 melanoma = test system: MDA-MB-435 melanoma
SR leukemia = test system: SR leukemia
OVCAR-3 ovarian = test system: OVCAR-3 ovarian
OVCAR-8 ovarian = test system: OVCAR-8 ovarian
RPMI-8226 leukemia = test system: RPMI-8226 leukemia
M14 melanoma = test system: M14 melanoma
NCI-H460 NSCLC = test system: NCI-H460 NSCLC
MDA-MB-468 breast = test system: MDA-MB-468 breast
UACC-257 melanoma = test system: UACC-257 melanoma
U251 glioblastoma = test system: U251 glioblastoma
MDA-MB-231 breast = test system: MDA-MB-231 breast
OVCAR-4 ovarian = test system: OVCAR-4 ovarian
DU-145 prostate = test system: DU-145 prostate
EKVX NSCLC = test system: EKVX NSCLC
RXF 393 renal = test system: RXF 393 renal
SK-OV-3 ovarian = test system: SK-OV-3 ovarian
BT-549 breast = test system: BT-549 breast
SK-MEL-5 melanoma = test system: SK-MEL-5 melanoma
HCC-2998 colon = test system: HCC-2998 colon
HCT-15 colon = test system: HCT-15 colon
NCI-H522 lung = test system: NCI-H522 lung
OVCAR-5 ovarian = test system: OVCAR-5 ovarian
SK-MEL-28 melanoma = test system: SK-MEL-28 melanoma
K-562 leukemia = test system: K-562 leukemia
MALME-3M melanoma = test system: MALME-3M melanoma
SN12C renal = test system: SN12C renal
UACC-62 melanoma = test system: UACC-62 melanoma
MOLT-4 leukemia = test system: MOLT-4 leukemia
HOP-92 NSCLC = test system: HOP-92 NSCLC
NCI-H226 lung = test system: NCI-H226 lung

`C[C@@H]1COCCN1c1cc(C2(S(C)(=N)=O)CC2)nc(-c2ccnc3[nH]ccc23)n1` (stereo partly drawn) gave a GI50 (COLO 205 colon) of 9.75 µM, a TGI (COLO 205 colon) of 31.1 µM and a GI50 (NCI-H23 lung) of 1.24 µM. For the same molecule, the TGI (NCI-H23 lung) was 3.26 µM, the GI50 (SF-295 CNS) was 2.47 µM and the TGI (SF-295 CNS) was 9.13 µM. It also gave a GI50 (TK-10 renal) of 0.756 µM, a TGI (TK-10 renal) of 3.58 µM and a GI50 (ACHN renal) of 0.71 µM. For the same molecule, the TGI (ACHN renal) was 3.6 µM, the GI50 (NCI-H322M lung) was 1.11 µM and the TGI (NCI-H322M lung) was 5.59 µM. The GI50 (HL-60(TB) leukemia) was 1 µM, the TGI (HL-60(TB) leukemia) was 2.53 µM and the GI50 (PC-3 prostate) was 5.4 µM. The TGI (PC-3 prostate) was 31.3 µM, the GI50 (HS 578T breast) was 2.45 µM and the TGI (HS 578T breast) was 12 µM. For the same molecule, the GI50 (SNB-19 CNS) was 6.13 µM, the TGI (SNB-19 CNS) was 57.3 µM and the GI50 (HCT-116 colon) was 2.54 µM. The TGI (HCT-116 colon) was > 100 µM, the GI50 (T-47D breast) was 8.7 µM and the TGI (T-47D breast) was > 43.1 µM. It also gave a GI50 (NCI/ADR-RES ovarian) of 17 µM, a TGI (NCI/ADR-RES ovarian) of 53.1 µM and a GI50 (MCF7 breast) of 0.615 µM. The TGI (MCF7 breast) was > 39.4 µM, the GI50 (CAKI-1 renal) was 2.84 µM and the TGI (CAKI-1 renal) was > 40 µM. The GI50 (SF-268 CNS) was 6.17 µM, the TGI (SF-268 CNS) was 24 µM and the GI50 ([…]-0 renal) was 1.82 µM. For the same molecule, the TGI (786-0 renal) was 5.72 µM, the GI50 (IGROV1 ovarian) was 2.67 µM and the TGI (IGROV1 ovarian) was 23 µM. For the same molecule, the GI50 (CCRF-CEM leukemia) was 0.638 µM, the TGI (CCRF-CEM leukemia) was 1.9 µM and the GI50 (LOX IMVI melanoma) was 1.29 µM. For the same molecule, the TGI (LOX IMVI melanoma) was 8.31 µM, the GI50 (SNB-75 CNS) was 4.52 µM and the TGI (SNB-75 CNS) was 14.3 µM. For the same molecule, the GI50 (A498 renal) was 0.637 µM, the TGI (A498 renal) was 2.25 µM and the GI50 (A549 NSCLC) was 3.54 µM. For the same molecule, the TGI (A549 NSCLC) was > 44.4 µM, the GI50 (HOP-62 NSCLC) was 1.34 µM and the TGI (HOP-62 NSCLC) was 3.58 µM. For the same molecule, the GI50 (SK-MEL-2 melanoma) was 0.685 µM, the TGI (SK-MEL-2 melanoma) was 2.46 µM and the GI50 (KM12 colon) was 1.63 µM. The TGI (KM12 colon) was 22.3 µM, the GI50 (SW-620 colon) was 2.77 µM and the TGI (SW-620 colon) was 50.4 µM. The GI50 (SF-539 CNS) was 1.29 µM, the TGI (SF-539 CNS) was 5.89 µM and the GI50 (HT29 colon) was 3.55 µM. The TGI (HT29 colon) was 15.8 µM, the GI50 (MDA-MB-435 melanoma) was 3.71 µM and the TGI (MDA-MB-435 melanoma) was 11.3 µM. The GI50 (SR leukemia) was 0.153 µM, the TGI (SR leukemia) was 0.45 µM and the GI50 (OVCAR-3 ovarian) was 3.03 µM. The TGI (OVCAR-3 ovarian) was 18.1 µM, the GI50 (OVCAR-8 ovarian) was 5.49 µM and the TGI (OVCAR-8 ovarian) was 18 µM. It also gave a GI50 (RPMI-8226 leukemia) of 1.4 µM, a TGI (RPMI-8226 leukemia) of 3.2 µM and a GI50 (M14 melanoma) of 1.64 µM. For the same molecule, the TGI (M14 melanoma) was 4.36 µM, the GI50 (NCI-H460 NSCLC) was 0.541 µM and the TGI (NCI-H460 NSCLC) was 4.87 µM. The GI50 (MDA-MB-468 breast) was 4.8 µM, the TGI (MDA-MB-468 breast) was 18.6 µM and the GI50 (UACC-257 melanoma) was 13 µM. It also gave a TGI (UACC-257 melanoma) of 27.5 µM, a GI50 (U251 glioblastoma) of 4.85 µM and a TGI (U251 glioblastoma) of 29 µM. The GI50 (MDA-MB-231 breast) was 5.68 µM, the TGI (MDA-MB-231 breast) was > 44.6 µM and the GI50 (OVCAR-4 ovarian) was 2 µM. For the same molecule, the TGI (OVCAR-4 ovarian) was 9.93 µM, the GI50 (DU-145 prostate) was 3.17 µM and the TGI (DU-145 prostate) was 14 µM. For the same molecule, the GI50 (EKVX NSCLC) was 4.78 µM, the TGI (EKVX NSCLC) was 19.9 µM and the GI50 (RXF 393 renal) was 2.67 µM. It also gave a TGI (RXF 393 renal) of 9.58 µM, a GI50 (SK-OV-3 ovarian) of 1.78 µM and a TGI (SK-OV-3 ovarian) of 18.9 µM. It also gave a GI50 (BT-549 breast) of 1.93 µM, a TGI (BT-549 breast) of 9.01 µM and a GI50 (SK-MEL-5 melanoma) of 3.62 µM. The TGI (SK-MEL-5 melanoma) was 12.8 µM, the GI50 (HCC-2998 colon) was 0.967 µM and the TGI (HCC-2998 colon) was 3.58 µM. It also gave a GI50 (HCT-15 colon) of 2.21 µM, a TGI (HCT-15 colon) of 13.7 µM and a GI50 (NCI-H522 lung) of 9.39 µM. The TGI (NCI-H522 lung) was 25 µM, the GI50 (OVCAR-5 ovarian) was 3.98 µM and the TGI (OVCAR-5 ovarian) was 22.4 µM. It also gave a GI50 (SK-MEL-28 melanoma) of 11.6 µM, a TGI (SK-MEL-28 melanoma) of 24.8 µM and a GI50 (K-562 leukemia) of 2.35 µM. For the same molecule, the TGI (K-562 leukemia) was 6.73 µM, the GI50 (MALME-3M melanoma) was 5.67 µM and the TGI (MALME-3M melanoma) was 16.8 µM. It also gave a GI50 (SN12C renal) of 2.96 µM, a TGI (SN12C renal) of 17.1 µM and a GI50 (UACC-62 melanoma) of 3.01 µM. The TGI (UACC-62 melanoma) was 14.4 µM, the GI50 (MOLT-4 leukemia) was 1.02 µM and the TGI (MOLT-4 leukemia) was 2.26 µM. The GI50 (HOP-92 NSCLC) was 2.04 µM, the TGI (HOP-92 NSCLC) was > 28.4 µM and the GI50 (NCI-H226 lung) was 8.14 µM. For the same molecule, the TGI (NCI-H226 lung) was 46.2 µM.
